“And” between values parts separate entries of the source, which are not always exact repeats. Identical values can stand only once. Square brackets hold non-standard residues; d marks the D form. Peptide text beside a SMILES is read from it.
Columns and labels:
[1] = tested on: adult female Balb/c mice; assay: LPS-induced lethality, oral (gavage) dosing; assay type: in vivo; settings: control mice 0%
Description: The LPS-induced lethality studies were performed based on information reported by Rivier et al., supra, 1989. Adult female Balb/c mice were provided food and water ad libitum. Mice were administered 150 μg or 300 μg EX-2, EX-3, EX-5 or EX-6 in 100 μl saline by gavage every 4 hr for 40 hr (total doses of 1.65 mg and 3.3 mg, respectively). Control mice received 100 μl saline, alone. Immediately following the first dose of cytokines restraining agent or saline, 0.6 mg LPS in 0.2 ml saline was administered by IP injection.

[2] = tested on: TNF-α; assay: Reduction of LPS-induced TNF levels in mice (IP dosing); assay type: in vivo; settings: 150 μg/mouse IP before LPS 5 mg/kg IP; vs untreated control mice
Description: Balb/c female mice weighing approximately 20 g were placed into two groups, a control group and a treated group. Five mg/kg of LPS in 0.9% saline was administered by intraperitoneal (IP) injection into the control mice. Mice in the treated group were first injected IP with 30 μg EX-2 or 150 μg EX-3 in saline, then, one mn after EX-2 or EX-3 was administered, the mice received LPS as described for the control group.
Blood samples were collected from the orbital sinus of treated and control mice at various times up to four hr after LPS was administered. The plasma was separated by centrifugation at 3000×g for 5 min, then diluted with four volumes of 1× phosphate buffer saline (pH 7.4) containing 1% bovine serum albumin. A 100 μl sample of serum was assayed by ELISA for TNF-α (Genzyme; Cambridge Mass.).
The mean (±SEM) TNF-α level in six mice from each group was determined and the percent reduction in TNF levels was calculated.

[3] = tested on: adult female Balb/c mice; assay: Carageenan-induced paw swelling; assay type: in vivo; settings: 1 μg/mouse; measured at the 2 hr time point
Description: Carageenan-induced paw swelling was induced using a modification of the methods of Hiltz and Lipton, Peptides 11:979-982 (1990); Vinegar et al., Fed. Proc. 46:118-1.26 (1987); and Vinegar et al., J. Pharmacol. Expt. Therap. 166:96-103 (1969), each of which is incorporated herein by reference. Briefly, adult female Balb/c mice were anesthetized by IP injection of 7 mg/kg ketoamine and 0.6 mg/kg rompun. Foot pad thickness was measured using a spring loaded micrometer (Swiss Precision Instruments). Foot pad thickness was expressed in units of 1/100 inch. After baseline measurements were obtained, mice were injected into a hind foot pad with either 0.2 ml physiologic saline (control) or varying doses of EX-2 or EX-3 in 0.2 ml saline (treated). The first injection was followed immediately by injection of 0.02 ml of 0.15% κ-carageenan (Sigma Chemical Co.; St. Louis, Mo.).
Hind foot pad thickness was measured hourly for six hr, the change in thickness was determined and the percent reduction in swelling due to treatment with EX-2 was calculated.

[4] = tested on: adult female Balb/c mice; assay: LPS-induced lethality (IP dosing); assay type: in vivo; settings: 11 × 300 μg/mouse IP (3.3 mg), every 4 hr; 0.6 mg LPS; vs control mice
Description: These experiments were performed based on information reported by Rivier et al., Endocrinology 125:2800-2805 (1989), which is incorporated herein by reference. Adult female Balb/c mice were provided food and water ad libitum. Mice were injected IP every four hr for 40 hr with 30 to 300 μg EX-2, EX-3 or EX-4 in 0.2 ml saline (treated group) or with 0.2 ml saline, alone (control group) (10 mice per group). Immediately following the first injection, 0.6 mg LPS endotoxin in 0.2 ml saline was administered to each mouse. Following LPS injection, EX-2 or saline was administered to the treated mice or the control mice, respectively, every 4 hr for 36 hr.

[5] = tested on: female Balb/c mice; assay: Arachidonic acid-induced ear swelling; assay type: in vivo; settings: 100 μg/mouse IP 30 min prior to AA; 60 min after AA application
Description: Experiments were performed using female Balb/c mice weighing 18-23 grams. Saline or 100 μg EX-2 or EX-3 was administered IP, 30 min prior to topical application of arachidonic acid (AA). A 10 μl pipet was used to apply 10 μl AA solution (100 mg/ml ethanol; Calbiochem-Novabiochem; San Diego Calif.) to the inner and outer surfaces of the right ear of each mouse. Ten μl ethanol, alone, was applied to the inner and outer surface of the left ear of each mouse.
Ear thickness was measured with a hand-held spring loaded caliper immediately before and 60 min after AA application. Increase in ear thickness was calculated by subtracting the change observed in the control ear from the change observed in AA-treated ear. The value for each group (saline and control) is the average of the swelling observed in the individual mice in each group. The percent reduction of swelling is based on the swelling observed in the saline control group.

[6] = tested on: Male Shelton rabbits; assay: Morphine-induced respiratory depression; assay type: in vivo; settings: 10 + 20 + 20 μg/kg/rabbit iv; at end of experiment (80 min)
Description: Male Shelton rabbits (3-4 kg) were restrained and fitted around the thorax, just behind the front limbs, with a respiration transducer (Model F-RCT; Grass Instruments; Quincy Mass.). The transducer was connected to a grass polygraph via an EKG cable. An intravenous line was established for drug administration by cannulating the marginal ear vein using a 25G butterfly needle.
Rabbit breathing was allowed to stabilize, then. morphine sulfate (2 mg/kg in 0.5 ml saline) was administered by intravenous (iv) injection and respiratory rate and depth were monitored for 10 min. A second dose of morphine was administered, then, after 10 min, EX-2 or EX-3 (10 μg/kg in 0.5 ml saline) was administered, iv, and rabbits were monitored for 20 min. Two additional doses of EX-2 or EX-3 (20 μg/kg in 1.0 ml saline) were administered at 20 min intervals, i.e., 40 min and 60 min after the first morphine injection.
Results were calculated as the percent change from baseline values and are expressed as the difference of the mean value of the treated group minus the mean value of the control group at the end of the experiment (80 min).

[7] = tested on: TNF-α; assay: LPS-induced TNF-α levels, oral (gavage) dosing; assay type: in vivo, mice
Description: The ability of orally administered cytokine restraining agents to reduce LPS-induced TNF-α levels also was examined. Balb/c female mice (20 g) were administered 150 μg or 300 μg EX-2, EX-3, EX-5 or EX-6 in 100 μl saline by gavage. Control mice received 100 μl saline, alone. One mn later, 0.1 mg LPS was administered by IP injection. Samples were collected and TNF-α levels were determined as described in Example III, above.
The mean TNF-α levels in the mice from each group (n=9-20) was determined and the percent reduction in TNF-α levels was calculated.

[8] = 300 μg by gavage before 0.1 mg LPS IP

`CC(=O)N[C@@H](Cc1c[nH]cn1)C(=O)N[C@H](Cc1ccccc1)C(=O)N[C@@H](CCCNC(=N)N)C(=O)N[C@H](Cc1c[nH]c2ccccc12)C(N)=O` [EX-6, Ac-His-(D)Phe-Arg-(D)Trp-NH2] was tested, and the “increase in survival (LPS-induced lethality)” value ([1]; 1.65 mg total (150 μg every 4 hr for 40 hr)) was 68%.
In the case of `CC(=O)N[C@H](C(=O)N[C@@H](CCC(N)=O)C(=O)N[C@@H](Cc1c[nH]cn1)C(=O)N[C@H](Cc1ccccc1)C(=O)N[C@@H](CCCNC(=N)N)C(=O)N[C@H](Cc1c[nH]c2ccccc12)C(=O)NCC(N)=O)C1CCCCC1` [EX-3, Ac-(cyclohexyl)Gly-Gln-His-(D)Phe-Arg-(D)Trp-Gly-NH2], the “Reduction in TNF levels” value [2] is reported as 56%, the “Reduction in Carageenan-induced Paw Swelling” value [3] is reported as 49% and the “Inhibition of LPS-induced Lethality (increase in survival)” value [4] is reported as 86%. The “Reduction in arachidonic acid-induced Ear Swelling” value [5] was 62%, the “Reduction in Morphine-induced Respiratory Depression” value [6] was 65% and the “percent reduction in TNF-α levels” value ([7]; 150 μg by gavage before 0.1 mg LPS IP) was 49%. The “percent reduction in TNF-α levels” value [7, 8] was 40%.
In the case of `CC(=O)N[C@@H](Cc1c[nH]cn1)C(=O)N[C@H](Cc1ccccc1)C(=O)N[C@@H](CCCNC(=N)N)C(=O)N[C@H](Cc1c[nH]c2ccccc12)C(=O)NCC(N)=O` [EX-5, Ac-His-(D)Phe-Arg-(D)Trp-Gly-NH2] (Ac-H[dF]R[dW]G-NH2), the “increase in survival (LPS-induced lethality)” value ([1]; 3.3 mg total (300 μg every 4 hr for 40 hr)) is reported as 63% and 44% and the “percent reduction in TNF-α levels” value [7, 8] is reported as 44%.
`CC(=O)N[C@H](Cc1ccccc1)C(=O)N[C@@H](CCCNC(=N)N)C(=O)N[C@H](Cc1c[nH]c2ccccc12)C(N)=O` [EX-4, Ac-(D)Phe-Arg-(D)Trp-NH2] was tested, and the “Reduction in TNF levels” value [2] was 53% and the “Inhibition of LPS-induced Lethality (increase in survival)” value [4] was 75%.
